Laboratory results reported in PubChem BioAssay (NCI).
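Each compound was tested at five concentrations against cells in 96-well plates for 48 hours. GI50 is the concentration that inhibits growth by half. TGI is the concentration that stops growth completely.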

What was measured:
Test in all cases: inhibition of tumour cell growth, NCI panel, 48 h
MDA-MB-231 breast = test system: MDA-MB-231 breast
DU-145 prostate = test system: DU-145 prostate
UACC-257 melanoma = test system: UACC-257 melanoma
ACHN renal = test system: ACHN renal
OVCAR-3 ovarian = test system: OVCAR-3 ovarian
MALME-3M melanoma = test system: MALME-3M melanoma
SF-295 CNS = test system: SF-295 CNS
SK-OV-3 ovarian = test system: SK-OV-3 ovarian
TK-10 renal = test system: TK-10 renal
SK-MEL-5 melanoma = test system: SK-MEL-5 melanoma
NCI-H226 lung = test system: NCI-H226 lung
NCI-H460 lung = test system: NCI-H460 lung
HOP-92 NSCLC = test system: HOP-92 NSCLC
MOLT-4 leukemia = test system: MOLT-4 leukemia
SW-620 colon = test system: SW-620 colon
T-47D breast = test system: T-47D breast
HOP-62 NSCLC = test system: HOP-62 NSCLC
KM12 colon = test system: KM12 colon
MDA-MB-435 = test system: MDA-MB-435
UACC-62 melanoma = test system: UACC-62 melanoma
CAKI-1 renal = test system: CAKI-1 renal
NCI/ADR-RES ovarian = test system: NCI/ADR-RES ovarian
U251 CNS = test system: U251 CNS
NCI-H23 lung = test system: NCI-H23 lung
OVCAR-5 ovarian = test system: OVCAR-5 ovarian
CCRF-CEM leukemia = test system: CCRF-CEM leukemia
HCT-116 colon = test system: HCT-116 colon
SNB-75 CNS = test system: SNB-75 CNS
RXF 393 renal = test system: RXF 393 renal
OVCAR-4 ovarian = test system: OVCAR-4 ovarian
A549 NSCLC = test system: A549 NSCLC
BT-549 breast = test system: BT-549 breast
SN12C renal = test system: SN12C renal
HL-60(TB) leukemia = test system: HL-60(TB) leukemia
UO-31 renal = test system: UO-31 renal
SF-268 CNS = test system: SF-268 CNS
EKVX NSCLC = test system: EKVX NSCLC
SNB-19 CNS = test system: SNB-19 CNS
SK-MEL-2 melanoma = test system: SK-MEL-2 melanoma
HCT-15 colon = test system: HCT-15 colon
OVCAR-8 ovarian = test system: OVCAR-8 ovarian
COLO 205 colon = test system: COLO 205 colon
IGROV1 ovarian = test system: IGROV1 ovarian
SR leukemia = test system: SR leukemia
LOX IMVI melanoma = test system: LOX IMVI melanoma
SF-539 CNS = test system: SF-539 CNS
A498 renal = test system: A498 renal
786-0 renal = test system: 786-0 renal
PC-3 prostate = test system: PC-3 prostate
M14 melanoma = test system: M14 melanoma
K-562 leukemia = test system: K-562 leukemia
HT29 colon = test system: HT29 colon
SK-MEL-28 melanoma = test system: SK-MEL-28 melanoma
NCI-H522 lung = test system: NCI-H522 lung

O=c1cc/c(=N\Nc2ccccc2)c(=O)/c1=N/Nc1ccccc1
GI50 (MDA-MB-231 breast): > 50 µM | TGI (MDA-MB-231 breast): > 50 µM | GI50 (DU-145 prostate): > 50 µM | TGI (DU-145 prostate): > 50 µM | GI50 (UACC-257 melanoma): > 50 µM | TGI (UACC-257 melanoma): > 50 µM | GI50 (ACHN renal): > 50 µM | TGI (ACHN renal): > 50 µM | GI50 (OVCAR-3 ovarian): > 50 µM | TGI (OVCAR-3 ovarian): > 50 µM | GI50 (MALME-3M melanoma): > 50 µM | TGI (MALME-3M melanoma): > 50 µM | GI50 (SF-295 CNS): > 50 µM | TGI (SF-295 CNS): > 50 µM | GI50 (SK-OV-3 ovarian): > 50 µM | TGI (SK-OV-3 ovarian): > 50 µM | GI50 (TK-10 renal): > 50 µM | TGI (TK-10 renal): > 50 µM | GI50 (SK-MEL-5 melanoma): > 50 µM | TGI (SK-MEL-5 melanoma): > 50 µM | GI50 (NCI-H226 lung): > 50 µM | TGI (NCI-H226 lung): > 50 µM | GI50 (NCI-H460 lung): > 50 µM | TGI (NCI-H460 lung): > 50 µM | GI50 (HOP-92 NSCLC): > 50 µM | TGI (HOP-92 NSCLC): > 50 µM | GI50 (MOLT-4 leukemia): > 50 µM | TGI (MOLT-4 leukemia): > 50 µM | GI50 (SW-620 colon): > 50 µM | TGI (SW-620 colon): > 50 µM | GI50 (T-47D breast): > 50 µM | TGI (T-47D breast): > 50 µM | GI50 (HOP-62 NSCLC): > 50 µM | TGI (HOP-62 NSCLC): > 50 µM | GI50 (KM12 colon): > 50 µM | TGI (KM12 colon): > 50 µM | GI50 (MDA-MB-435): > 50 µM | TGI (MDA-MB-435): > 50 µM | GI50 (UACC-62 melanoma): > 50 µM | TGI (UACC-62 melanoma): > 50 µM | GI50 (CAKI-1 renal): > 50 µM | TGI (CAKI-1 renal): > 50 µM | GI50 (NCI/ADR-RES ovarian): > 50 µM | TGI (NCI/ADR-RES ovarian): > 50 µM | GI50 (U251 CNS): > 50 µM | TGI (U251 CNS): > 50 µM | GI50 (NCI-H23 lung): > 50 µM | TGI (NCI-H23 lung): > 50 µM | GI50 (OVCAR-5 ovarian): > 50 µM | TGI (OVCAR-5 ovarian): > 50 µM | GI50 (CCRF-CEM leukemia): > 50 µM | TGI (CCRF-CEM leukemia): > 50 µM | GI50 (HCT-116 colon): > 50 µM | TGI (HCT-116 colon): > 50 µM | GI50 (SNB-75 CNS): > 50 µM | TGI (SNB-75 CNS): > 50 µM | GI50 (RXF 393 renal): > 50 µM | TGI (RXF 393 renal): > 50 µM | GI50 (OVCAR-4 ovarian): > 50 µM | TGI (OVCAR-4 ovarian): > 50 µM | GI50 (A549 NSCLC): > 50 µM | TGI (A549 NSCLC): > 50 µM | GI50 (BT-549 breast): > 50 µM | TGI (BT-549 breast): > 50 µM | GI50 (SN12C renal): > 50 µM | TGI (SN12C renal): > 50 µM | GI50 (HL-60(TB) leukemia): > 50 µM | TGI (HL-60(TB) leukemia): > 50 µM | GI50 (UO-31 renal): > 50 µM | TGI (UO-31 renal): > 50 µM | GI50 (SF-268 CNS): > 50 µM | TGI (SF-268 CNS): > 50 µM | GI50 (EKVX NSCLC): > 50 µM | TGI (EKVX NSCLC): > 50 µM | GI50 (SNB-19 CNS): > 50 µM | TGI (SNB-19 CNS): > 50 µM | GI50 (SK-MEL-2 melanoma): > 50 µM | TGI (SK-MEL-2 melanoma): > 50 µM | GI50 (HCT-15 colon): > 50 µM | TGI (HCT-15 colon): > 50 µM | GI50 (OVCAR-8 ovarian): > 50 µM | TGI (OVCAR-8 ovarian): > 50 µM | GI50 (COLO 205 colon): > 50 µM | TGI (COLO 205 colon): > 50 µM | GI50 (IGROV1 ovarian): > 50 µM | TGI (IGROV1 ovarian): > 50 µM | GI50 (SR leukemia): > 50 µM | TGI (SR leukemia): > 50 µM | GI50 (LOX IMVI melanoma): > 50 µM | TGI (LOX IMVI melanoma): > 50 µM | GI50 (SF-539 CNS): > 50 µM | TGI (SF-539 CNS): > 50 µM | GI50 (A498 renal): > 50 µM | TGI (A498 renal): > 50 µM | GI50 (786-0 renal): > 50 µM | TGI (786-0 renal): > 50 µM | GI50 (PC-3 prostate): > 50 µM | TGI (PC-3 prostate): > 50 µM | GI50 (M14 melanoma): > 50 µM | TGI (M14 melanoma): > 50 µM | GI50 (K-562 leukemia): > 50 µM | TGI (K-562 leukemia): > 50 µM | GI50 (HT29 colon): > 50 µM | TGI (HT29 colon): > 50 µM

Clc1cc(Cl)cc(N2N=C(c3cccc(Nc4ccncc4)c3)CC2c2ccccc2)c1 (stereo unspecified)
GI50 (DU-145 prostate): 2.54 µM | TGI (DU-145 prostate): 6.51 µM | GI50 (ACHN renal): 1.9 µM | TGI (ACHN renal): 3.89 µM | GI50 (MALME-3M melanoma): 1.67 µM | TGI (MALME-3M melanoma): 3.16 µM | GI50 (SF-295 CNS): 1.65 µM | TGI (SF-295 CNS): 3.08 µM | GI50 (SK-OV-3 ovarian): 13.1 µM | TGI (SK-OV-3 ovarian): 31.9 µM | GI50 (TK-10 renal): 2.02 µM | TGI (TK-10 renal): 3.98 µM | GI50 (SK-MEL-5 melanoma): 1.78 µM | TGI (SK-MEL-5 melanoma): 3.23 µM | GI50 (NCI-H226 lung): 14 µM | TGI (NCI-H226 lung): 38.7 µM | GI50 (NCI-H460 lung): 1.8 µM | TGI (NCI-H460 lung): 3.37 µM | GI50 (HOP-92 NSCLC): 1.49 µM | TGI (HOP-92 NSCLC): 3.07 µM | GI50 (MOLT-4 leukemia): 2.29 µM | TGI (MOLT-4 leukemia): 5.95 µM | GI50 (SW-620 colon): 1.85 µM | TGI (SW-620 colon): 3.73 µM | GI50 (T-47D breast): 1.73 µM | TGI (T-47D breast): 4.2 µM | GI50 (KM12 colon): 1.86 µM | TGI (KM12 colon): 3.7 µM | GI50 (MDA-MB-435): 1.72 µM | TGI (MDA-MB-435): 3.36 µM | GI50 (UACC-62 melanoma): 1.74 µM | TGI (UACC-62 melanoma): 3.24 µM | GI50 (CAKI-1 renal): 1.57 µM | TGI (CAKI-1 renal): 3.36 µM | GI50 (NCI-H23 lung): 1.81 µM | TGI (NCI-H23 lung): 3.91 µM | GI50 (OVCAR-5 ovarian): 2.56 µM | TGI (OVCAR-5 ovarian): 8.74 µM | GI50 (CCRF-CEM leukemia): 2.92 µM | TGI (CCRF-CEM leukemia): > 100 µM | GI50 (SNB-75 CNS): 1.45 µM | TGI (SNB-75 CNS): 5.38 µM | GI50 (OVCAR-4 ovarian): 1.86 µM | TGI (OVCAR-4 ovarian): 3.87 µM | GI50 (BT-549 breast): 6.23 µM | TGI (BT-549 breast): 28.4 µM | GI50 (SN12C renal): 1.66 µM | TGI (SN12C renal): 3.12 µM | GI50 (HL-60(TB) leukemia): 1.9 µM | TGI (HL-60(TB) leukemia): 5.2 µM | GI50 (SF-268 CNS): 1.99 µM | TGI (SF-268 CNS): 4.63 µM | GI50 (EKVX NSCLC): 1.7 µM | TGI (EKVX NSCLC): 4.23 µM | GI50 (SK-MEL-28 melanoma): 1.76 µM | TGI (SK-MEL-28 melanoma): 3.21 µM | GI50 (HCT-15 colon): 1.66 µM | TGI (HCT-15 colon): 3.31 µM | GI50 (OVCAR-8 ovarian): 2.07 µM | TGI (OVCAR-8 ovarian): 4.56 µM | GI50 (IGROV1 ovarian): 1.54 µM | TGI (IGROV1 ovarian): 3.04 µM | GI50 (NCI-H522 lung): 1.79 µM | TGI (NCI-H522 lung): 3.6 µM | GI50 (SF-539 CNS): 1.72 µM | TGI (SF-539 CNS): 3.2 µM | GI50 (A498 renal): 1.81 µM | TGI (A498 renal): 4.42 µM | GI50 (PC-3 prostate): 1.87 µM | TGI (PC-3 prostate): 5.15 µM | GI50 (HT29 colon): 1.8 µM | TGI (HT29 colon): 3.73 µM
